# Measured values as given in patent publication EP4714462A1, “COMPOSITION COMPRISING GV1001 FOR PREVENTING OR TREATING MACULAR DEGENERATION” (Gemvax & Kael Co., Ltd., priority 2023, dated 2024).
# Key:
# [1] = system: retinal pigment epithelial cell line ARPE-19; test: Epithelial-mesenchymal transition (cadherin 1 / vimentin, confocal microscopy) in H2O2-treated retinal pigment epithelial cells; format: cell-based; details: ARPE-19, H2O2 50 µM; metformin 1 mM (positive control)
# Excerpt: (§1) Reactive oxygen species were generated by treating retinal pigment epithelial cell line ARPE-19 with hydrogen peroxide (H2O2).
# [2] = system: mouse model of age-related macular degeneration; test: Short-term administration in NaIO3 mouse model of age-related macular degeneration (phalloidin-stained RPE/choroid flat mount); format: in vivo, C57BL/6 mice; details: NaIO3 20 mg/kg IV; metformin 4 mg/mL in drinking water for 7 days before NaIO3
# Excerpt: Mice injected with sodium iodate (NaIO3) are used as a representative model of age-related macular degeneration. A mouse model of age-related macular degeneration was established by injecting NaIO3 into C57BL/6 mice, thereby inducing oxidative stress specific to retinal pigment epithelial cells and causing damage.
# [3] = system: retinal pigment epithelial cell line ARPE-19; test: Reduction of reactive oxygen species (DCF-DA fluorescence microscopy) in H2O2-treated retinal pigment epithelial cells; format: cell-based; details: ARPE-19, H2O2 50 µM; metformin 1 mM (positive control)
# Excerpt: as §1
smiles,measurement,setting,value
CN(C)C(=N)N=C(N)N [metformin],epithelial-mesenchymal transition,[1],reduced
same,tight junction structure,[2],maintained
same,DCF-DA fluorescence intensity,[3],decreased
